From patent US20060241172A1, “Benzodioxane and benzodioxolane derivatives and uses thereof” (Wyeth, priority 2005, published 2006) come the findings set out here.

The Ki is a dissociation constant, usually derived from enzyme kinetics or from competition with a known ligand. A word on the Emax: it is the maximal effect, on the per cent scale that the assay sets. What is called EC50 is the concentration needed to bring the measured effect to its halfway point.

Experiment [1] addresses T1, human 5-hydroxytryptamine-2C (h5-HT2C) receptor (Homo sapiens, UniProt P28335).
T1 construct: expressed in transfected cells; host or cells: CHO (Chinese Hamster Ovary) cells; membranes
T1 sequence (P28335 33-458): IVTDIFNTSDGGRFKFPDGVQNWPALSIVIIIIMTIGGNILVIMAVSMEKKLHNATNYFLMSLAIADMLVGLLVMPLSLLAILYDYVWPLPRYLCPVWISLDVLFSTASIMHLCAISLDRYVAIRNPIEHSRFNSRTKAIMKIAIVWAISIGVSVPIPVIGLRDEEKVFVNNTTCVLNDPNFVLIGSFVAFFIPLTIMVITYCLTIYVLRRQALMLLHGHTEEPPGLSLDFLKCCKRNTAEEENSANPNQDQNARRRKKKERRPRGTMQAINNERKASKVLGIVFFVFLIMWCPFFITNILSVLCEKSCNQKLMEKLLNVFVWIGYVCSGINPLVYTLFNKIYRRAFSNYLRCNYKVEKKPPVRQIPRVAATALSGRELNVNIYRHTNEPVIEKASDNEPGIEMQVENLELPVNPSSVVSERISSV
Briefly: 5-HT2C binding: [125I]DOI displacement in membranes of transfected CHO cells. The conditions noted are these: read-out: 5-HT2C Binding Ki avg.

The target of experiment [2] is T2, human 5-HT2C receptor (Homo sapiens, UniProt P28335).
T2 sequence (P28335 33-458): T1 sequence (P28335 33-458)
The experiment can be described thus: 5-HT2C receptor-stimulated calcium mobilization (FLIPR) in CHO cells. The class given is cell-based. The conditions noted are these: for Emax: CHO, read-out: 5-HT2C Function EMax (%); for EC50: read-out: 5-HT2C Function EC50. (A change in cytosolic calcium serves as a functional read-out for many receptors and channels.)

With `NC[C@H]1COc2cc(Cl)cc(-c3ccc(Cl)cc3Cl)c2O1` [Compound I-64, (2S)-[6-Chloro-8-(2,4-dichloro-phenyl)-2,3-dihydro-benzo[1,4]dioxin-2-yl]-methyl amine], in experiment [1], the Ki is less than 50 nM. In experiment [2], the Emax came out at 60% and the EC50 was 100 to 500 nM.
The like results for `NC[C@H]1COc2cc(F)cc(-c3c(Cl)cccc3Cl)c2O1` [Compound I-47, {[(2S)-8-(2,6-Dichlorophenyl)-6-fluoro-2,3-dihydro-1,4-benzodioxin-2-yl]methyl}amine] were, in that order, less than 50 nM, 60% and less than 100 nM.
The like results for `CCNCC1COc2cccc(-c3ccc(Cl)cc3Cl)c2O1` (centres unmarked) [Compound I-33, N-{[8-(2,4-Dichlorophenyl)-2,3-dihydro-1,4-benzodioxin-2-yl]methyl}ethanamine] were, in that order, 50 to 200 nM, 30% and more than 500 nM.
For `NCC1Oc2cc(Cl)cc(-c3ccc(Cl)cc3Cl)c2O1` (centres unmarked) [Compound I-96, [6-Chloro-4-(2,4-dichloro-phenyl)-benzo[1,3]dioxol-2-yl]-methylamine], the Ki in experiment [1] was less than 50 nM. Besides, in experiment [2], the Emax is 80% and the EC50 is less than 100 nM.
With `CCCNCC1COc2cccc(-c3ccc(Cl)cc3Cl)c2O1` (centres unmarked) [Compound I-35, N-{[8-(2,4-Dichlorophenyl)-2,3-dihydro-1,4-benzodioxin-2-yl]methyl}propan-1-amine], the Ki in experiment [1] was 50 to 200 nM. In addition, in experiment [2], the EC50 is more than 500 nM.
For `CNCC1COc2cccc(-c3ccccc3OC)c2O1` (centres unmarked) [Compound I-19, {[8-(2-Methoxyphenyl)-2,3-dihydro-1,4-benzodioxin-2-yl]methyl}methylamine], the Ki in experiment [1] is more than 200 nM. Also, in experiment [2], the Emax was 20% and the EC50 lay in the range of 100 to 500 nM.
`NCC1COc2cccc(-c3cc(Cl)ccc3Cl)c2O1` (centres unmarked) [Compound I-8, {[8-(2,5-Dichlorophenyl)-2,3-dihydro-1,4-benzodioxin-2-yl]methyl}amine]: the Ki in experiment [1] is less than 50 nM. In experiment [2], the Emax came to 60% and the EC50 was less than 100 nM.
The like results for `NCC1Oc2cc(F)cc(-c3ccccc3C(F)(F)F)c2O1` (centres unmarked) [Compound I-82, 1-[4-(2-Trifluoromethyl-phenyl)-6-fluoro-1,3-benzodioxol-2-yl]methanamine] were, in that order, less than 50 nM, 70% and less than 100 nM.
The like results for `NC[C@H]1COc2cc(Cl)cc(-c3ccccc3C(F)(F)F)c2O1` [Compound I-62, (2S)-[6-Chloro-8-(2-trifluoromethyl-phenyl)-2,3-dihydro-benzo[1,4]dioxin-2-yl]-methylamine] were, in that order, less than 50 nM, 60% and 100 to 500 nM.
The like results for `COc1ccccc1-c1cc(F)cc2c1OC(CN)O2` (centres unmarked) [Compound I-76, 1-[6-Fluoro-4-(2-methoxyphenyl)-1,3-benzodioxol-2-yl]methanamine] were, in that order, less than 50 nM, 70% and less than 100 nM.
In the case of `NC[C@H]1COc2ccc(Cl)c(-c3ccccc3Cl)c2O1` [Compound I-70, (2S)-[7-Chloro-8-(2-chloro-phenyl)-2,3-dihydro-benzo[1,4]dioxin-2-yl]-methylamine], the Ki in experiment [1] was less than 50 nM. Moreover, in experiment [2], the Emax is 50% and the EC50 is less than 100 nM.
On to `CC(C)NCC1COc2cccc(-c3ccccc3Cl)c2O1` (centres unmarked) [Compound I-36, N-{[8-(2-Chlorophenyl)-2,3-dihydro-1,4-benzodioxin-2-yl]methyl}propan-2-amine], for which, in experiment [1], the Ki was more than 200 nM. In addition, the concentration for a half-maximal effect (EC50) in experiment [2] is more than 500 nM.
Take `NCC1COc2cccc(-c3cccc(Cl)c3Cl)c2O1` (centres unmarked) [Compound I-6, {[8-(2,3-Dichlorophenyl)-2,3-dihydro-1,4-benzodioxin-2-yl]methyl}amine]: the Ki in experiment [1] is 50 to 200 nM. For the same compound, in experiment [2], the Emax was 70% and the EC50 lay in the range of 100 to 500 nM.
For the compound `NCC1Oc2cc(Cl)cc(-c3ccccc3Cl)c2O1` (centres unmarked) [Compound I-90, [6-Chloro-4-(2-chloro-phenyl)-benzo[1,3]dioxol-2-yl]-methylamine], the Ki in experiment [1] is less than 50 nM. Moreover, in experiment [2], the Emax turned out to be 80% and the EC50 is less than 100 nM.
Turning to `NC[C@H]1COc2cc(Cl)cc(-c3cc(Cl)ccc3Cl)c2O1` [Compound I-67, (2S)-[6-Chloro-8-(2,5-dichloro-phenyl)-2,3-dihydro-benzo[1,4]dioxin-2-yl]-methyl amine], the Ki in experiment [1] is less than 50 nM. Also, in experiment [2], the Emax worked out at 50% and the EC50 is 100 to 500 nM.
For the compound `COc1ccc(Cl)cc1-c1cccc2c1OC(CN)CO2` (centres unmarked) [Compound I-16, {[8-(5-Chloro-2-methoxyphenyl)-2,3-dihydro-1,4-benzodioxin-2-yl]methyl}amine], in experiment [1], the inhibition constant Ki was in the range of 50 to 200 nM. Besides, in experiment [2], the Emax turned out to be 60% and the EC50 is less than 100 nM.
The matching figures for `NC[C@H]1COc2ccc(F)c(-c3ccccc3Cl)c2O1` [Compound I-71, (2S)-[8-(2-Chloro-phenyl)-7-fluoro-2,3-dihydro-benzo[1,4]dioxin-2-yl]-methylamine]: less than 50 nM, 40% and less than 100 nM.
The like results for `CN(C)CC1COc2cccc(-c3ccccc3Cl)c2O1` (centres unmarked) [Compound I-38, {[8-(2-Chlorophenyl)-2,3-dihydro-1,4-benzodioxin-2-yl]methyl}dimethylamine] were, in that order, less than 50 nM, 30% and 100 to 500 nM.
The like results for `NC[C@H]1Oc2cc(F)cc(-c3c(Cl)cccc3Cl)c2O1` [Compound I-85, 1-[(2S)-4-(2,6-dichlorophenyl)-6-fluoro-1,3-benzodioxol-2-yl]methanamine] were, in that order, less than 50 nM, 90% and less than 100 nM.
With `CNCC1Oc2cc(F)cc(-c3ccccc3Cl)c2O1` (centres unmarked) [Compound I-87, 1-[4-(2-Chlorophenyl)-6-fluoro-1,3-benzodioxol-2-yl]-N-methylmethanamine], the Ki in experiment [1] is less than 50 nM. In experiment [2], the Emax was determined as 80% and the EC50 is less than 100 nM.
In the case of `Clc1ccc(-c2cccc3c2OC(CNC2CC2)CO3)c(Cl)c1` (centres unmarked) [Compound I-44, N-{[8-(2,4-Dichlorophenyl)-2,3-dihydro-1,4-benzodioxin-2-yl]methyl}cyclopropanamine], the Ki in experiment [1] is 50 to 200 nM. Also, the EC50 in experiment [2] is more than 500 nM.
As for `Cc1ccccc1-c1cc(Cl)cc2c1O[C@@H](CN)CO2` [Compound I-60, (2S)-[6-Chloro-8-(2-methyl-phenyl)-2,3-dihydro-benzo[1,4]dioxin-2-yl]-methylamine], the Ki in experiment [1] was less than 50 nM. Besides, in experiment [2], the Emax stood at 50% and the EC50 lay in the range of 100 to 500 nM.
With `CNCC1COc2cccc(-c3cccc(OC)c3OC)c2O1` (centres unmarked) [Compound I-30, {[8-(2,3-Dimethoxyphenyl)-2,3-dihydro-1,4-benzodioxin-2-yl]methyl}methylamine], the Ki in experiment [1] is 50 to 200 nM. The EC50 in experiment [2] is more than 500 nM.
For the compound `NC[C@H]1COc2cc(Cl)cc(-c3ccccc3Cl)c2O1` [Compound I-58, (2S)-[6-Chloro-8-(2-chloro-phenyl)-2,3-dihydro-benzo[1,4]dioxin-2-yl]-methylamine], in experiment [1], the Ki is less than 50 nM. In experiment [2], the Emax was 50% and the EC50 is less than 100 nM.
Take `CNCC1COc2cccc(-c3ccccc3F)c2O1` (centres unmarked) [Compound I-18, {[8-(2-Fluorophenyl)-2,3-dihydro-1,4-benzodioxin-2-yl]methyl}methylamine]: in experiment [1], the Ki was less than 50 nM. In experiment [2], the Emax was determined as 50% and the EC50 is less than 100 nM.
The matching figures for `NCC1Oc2cc(Cl)cc(-c3cc(Cl)ccc3Cl)c2O1` (centres unmarked) [Compound I-98, [6-Chloro-4-(2,5-dichloro-phenyl)-benzo[1,3]dioxol-2-yl]-methylamine]: less than 50 nM, 80% and less than 100 nM.
The matching figures for `NCC1Oc2cc(F)cc(-c3ccccc3Cl)c2O1` (centres unmarked) [Compound I-84, 1-[4-(2-Chloro-phenyl)-6-fluoro-1,3-benzodioxol-2-yl]methanamine]: less than 50 nM, 80% and less than 100 nM.
The like results for `CC(C)NCC1COc2cccc(-c3ccc(Cl)cc3Cl)c2O1` (centres unmarked) [Compound I-37, N-{[8-(2,4-Dichlorophenyl)-2,3-dihydro-1,4-benzodioxin-2-yl]methyl}propan-2-amine] were, in that order, more than 200 nM, 20% and more than 500 nM.
Take `Cc1cccc(C)c1-c1cccc2c1OC(CN)CO2` (centres unmarked) [Compound I-12, {[8-(2,6-Dimethylphenyl)-2,3-dihydro-1,4-benzodioxin-2-yl]methyl}amine]: in experiment [1], the Ki was less than 50 nM. For the same compound, in experiment [2], the Emax was 70% and the EC50 was less than 100 nM.
`Cc1ccc(C)c(-c2cccc3c2OC(CN)CO3)c1` (centres unmarked) [Compound I-11, {[8-(2,5-Dimethylphenyl)-2,3-dihydro-1,4-benzodioxin-2-yl]methyl}amine]: the Ki in experiment [1] is more than 200 nM. Moreover, in experiment [2], the Emax was found to be 60% and the EC50 was 100 to 500 nM.
The matching figures for `CNCC1COc2cccc(-c3ccccc3Cl)c2O1` (centres unmarked) [Compound I-21, {[8-(2-Chlorophenyl)-2,3-dihydro-1,4-benzodioxin-2-yl]methyl}methylamine]: less than 50 nM, 40% and less than 100 nM.
